Assay results: the supplement of paper PMC12370961

Assays:
Experiment in all cases: differential drug sensitivity score (dDSS) relative to sarcoma reference cohort mean DSS (DSS units (0-100 scale difference)); higher = more selective sensitivity than reference sarcomas
Conditions in all cases: exposure time: 72 h; concentration range: 10-10000 nM
ES-ZH002 = tested on: ES-ZH002 (patient-derived Ewing sarcoma tumoroid)
Protocol: (§1)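 Drug response profiling of patient-derived Ewing sarcoma and CIC::DUX4 sarcoma tumoroid models (or cells tested directly after isolation from the tumor, 'direct'). The DSS is the normalised AUC (0-100); dDSS is the sample DSS minus the mean DSS of a 34-sarcoma reference cohort profiled in the same lab.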

CDS-ZH001 = tested on: CDS-ZH001 (patient-derived CIC-DUX4 sarcoma tumoroid)
Protocol: as §1

ES-ZH001 = tested on: ES-ZH001 (patient-derived Ewing sarcoma tumoroid)
Protocol: as §1

ES-ZH016 direct = tested on: ES-ZH016 direct (Ewing sarcoma cells right after isolation)
Protocol: as §1

ES-ZH004 = tested on: ES-ZH004 (patient-derived Ewing sarcoma tumoroid)
Protocol: as §1

CDS-ZH001-2 = tested on: CDS-ZH001-2 (patient-derived CIC-DUX4 sarcoma tumoroid)
Protocol: as §1

ES-ZH009 = tested on: ES-ZH009 (patient-derived Ewing sarcoma tumoroid)
Protocol: as §1

CDS-ZH003 = tested on: CDS-ZH003 (patient-derived CIC-DUX4 sarcoma tumoroid)
Protocol: as §1

CDS-ZH002 = tested on: CDS-ZH002 (patient-derived CIC-DUX4 sarcoma tumoroid)
Protocol: as §1

CDS-ZH002 direct = tested on: CDS-ZH002 direct (CIC-DUX4 sarcoma cells right after isolation)
Protocol: as §1

ES-ZH007 = tested on: ES-ZH007 (patient-derived Ewing sarcoma tumoroid)
Protocol: as §1

ES-ZH016 = tested on: ES-ZH016 (patient-derived Ewing sarcoma tumoroid)
Protocol: as §1

ES-ZH008 = tested on: ES-ZH008 (patient-derived Ewing sarcoma tumoroid)
Protocol: as §1

SMILES	differential drug sensitivity score (ES-ZH002)	differential drug sensitivity score (CDS-ZH001)	differential drug sensitivity score (ES-ZH001)	differential drug sensitivity score (ES-ZH016 direct)	differential drug sensitivity score (ES-ZH004)	differential drug sensitivity score (CDS-ZH001-2)	differential drug sensitivity score (ES-ZH009)	differential drug sensitivity score (CDS-ZH003)	differential drug sensitivity score (CDS-ZH002)	differential drug sensitivity score (CDS-ZH002 direct)	differential drug sensitivity score (ES-ZH007)	differential drug sensitivity score (ES-ZH016)	differential drug sensitivity score (ES-ZH008)
FC(F)(F)c1ccc(CNc2ccc(Cc3c[nH]c4ncc(Cl)cc34)cn2)cn1 [Pexidartinib]	-1.3	-1.5	-1.5	3.5	0	0.5	-0.8	-1.3	-1.5	5.7	-1.5	0.7	-0.7
C[C@H](NC(=O)CCC(F)(F)F)C(=O)N[C@@H]1C(=O)N(CCO)c2ncccc2-c2ccccc21 [Crenigacestat]	13.6	-2.3	5.8	1	5.8	0.3	-2.3	-2.3	-0.2	-0.6	-2.3	-2.3	6.4
Cc1nc(NC(=O)N2CCC[C@H]2C(N)=O)sc1-c1ccnc(C(C)(C)C(F)(F)F)c1 [Alpelisib]	11	2.9	-3.7	0.9	0.8	4.9	2.5	0.2	-3	-2	-1.9	1	11
CCc1ccc(/C=C2/SC(=S)NC2=O)cc1	1.2	3.2	-2.1	4	-2.1	1	3.1	-1.6	2.3	-2.1	-1.2	5.6	-1.6
CN1CCN(c2ccc3nc(-c4c(N)c5c(F)cccc5[nH]c4=O)[nH]c3c2)CC1 [Dovitinib]	6.3	-2.9	0.4	7.6	-1.9	1.1	1.5	-4	-4	-1.6	-3.8	-3.2	1.7
CN(C)C(=O)c1cc2cnc(Nc3ccc(N4CCNCC4)cn3)nc2n1C1CCCC1 [Ribociclib]	8	-2.1	2.6	-3	4.2	-2.1	1.9	-0.8	-2.3	-2	4.1	0.4	3.5
Nc1ccccc1NC(=O)c1ccc(CNC(=O)OCc2cccnc2)cc1 [Entinostat]	4.9	-4.9	0.2	5.6	7.1	0.5	2.1	-2.1	-3	1.3	5.5	-0.2	5.6
C[C@@H]1CCN(C(=O)CC#N)C[C@@H]1N(C)c1ncnc2[nH]ccc12 [Tofacitinib]	6.4	-1.3	5.4	-1.3	0.8	-1.3	-0.3	-3.7	-1.3	0.3	-1	-1.3	4.8
CCc1cncnc1N1CCN(Cc2nc3ccc(C(F)(F)F)cc3[nH]2)CC1	-3.9	-3.7	-0.7	-4.2	-2.8	-3.6	3.3	-0.6	-1	-2.4	-1.7	-3.1	-3.8
O=C1c2c(O)ccc(O)c2C(=O)c2c(NCCNCCO)ccc(NCCNCCO)c21 [Mitoxantrone]	21.8	5.1	10.9	11.9	5.1	9.1	10	-2.1	3.5	0.4	-1.8	14.7	9.8
C=CC(=O)N1CCN(c2nc(=O)n(-c3c(C)ccnc3C(C)C)c3nc(-c4c(O)cccc4F)c(F)cc23)[C@@H](C)C1 [Sotorasib]	10.6	2.7	4.7	6.3	5.9	0.9	5.5	-4.3	-0.1	1.9	-3.1	2.8	4.1
CC(C)NCCCn1c(Sc2cc3c(cc2I)OCO3)nc2c(N)ncnc21 [Zelavespib]	3.4	0.5	0.8	2.3	-2.1	3.1	7.3	4.4	-7.7	-1.1	0.4	-0.6	5.8
CC1(C)CCC(c2ccc(Cl)cc2)=C(CN2CCN(c3ccc(C(=O)NS(=O)(=O)c4ccc(N[C@H](CCN5CCOCC5)CSc5ccccc5)c(S(=O)(=O)C(F)(F)F)c4)cc3)CC2)C1 [Navitoclax]	17.3	-2.9	6.7	13.7	-3.4	2.5	4.9	0.6	-7.6	-5.8	-7.4	-6.4	10.4
Nc1cccc2c1C(=O)N(C1CCC(=O)NC1=O)C2=O (centres undefined) [Pomalidomide]	6.4	-0.6	-1.1	-1.2	0.4	-1.4	-1.3	-1.3	-1.4	-1.4	-1.2	-1.4	3
CO[C@H]1C[C@@H]2CC[C@@H](C)[C@@](O)(O2)C(=O)C(=O)N2CCCC[C@H]2C(=O)O[C@H]([C@H](C)C[C@@H]2CC[C@@H](O)[C@H](OC)C2)CC(=O)[C@H](C)/C=C(\C)[C@@H](O)[C@@H](OC)C(=O)[C@H](C)C[C@H](C)/C=C/C=C/C=C/1C [Sirolimus]	17.8	-10.4	5.7	-8.7	14.2	-0.4	2.7	-6.7	-10.4	-2.2	7.2	-0.6	6.7
O=C(O)C(=O)O.[NH-][C@@H]1CCCC[C@H]1[NH-].[Pt+2] [Oxaliplatin]	-2	2.2	-0.1	-5	0.2	5.9	-5	-4.8	5.9	7.7	1	1.2	2.9
Cc1cc(Nc2ncc(Cl)c(Nc3ccccc3S(=O)(=O)C(C)C)n2)c(OC(C)C)cc1C1CCNCC1 [Ceritinib]	11.7	4.9	2.9	3.7	3.5	7	2.1	0.3	0.4	-0.1	3.8	3.4	4.9
CCc1c(O)cc(O)c(C(=O)c2ccc(OCCN3CCOCC3)c(OC)c2)c1CC(=O)N(CCOC)CCOC [KW-2478]	7.3	-0.4	3.5	3.2	0	0.4	4.4	-1.3	-3.8	-0.4	0.6	1.4	6.1
COc1cccc2c1C(=O)c1c(O)c3c(c(O)c1C2=O)C[C@@](O)(C(C)=O)C[C@@H]3O[C@H]1C[C@H](N)[C@H](O)[C@H](C)O1 [Daunorubicin]	21.7	4.9	9.1	12.9	-4.5	13.2	12.6	0.8	2.8	2.7	-5.2	12.2	3.2
CNC(=O)c1cc(Oc2ccc(NC(=O)Nc3ccc(Cl)c(C(F)(F)F)c3)c(F)c2)ccn1 [Regorafenib]	-1.1	-2	-2	-2	0.8	-2	-0.4	2.7	-2	-0.6	-2	-2	-2
O=NN(CCCl)C(=O)NCCCl [Carmustine]	7.3	-1.3	2.6	2.1	1.6	-0.5	-1.3	-1.3	-1.2	-1.2	-1.3	1.1	1.4
CN1CCC(CNc2ccc3ncc(-c4cccc(OC(F)(F)F)c4)n3n2)CC1 [SGI1776]	6.6	3.5	0.3	-0.3	1.6	3.7	0.3	4.4	0.1	-0.4	0.5	0.8	2.1
CCCS(=O)(=O)Nc1ccc(F)c(C(=O)c2c[nH]c3ncc(-c4ccc(Cl)cc4)cc23)c1F [Vemurafenib]	-0.6	-0.6	-0.6	-0.6	-0.6	-0.6	0.8	7.4	-0.6	-0.6	-0.6	-0.6	-0.6
O=C(/C=C\n1cnc(-c2cc(C(F)(F)F)cc(C(F)(F)F)c2)n1)NNc1cnccn1 [Selinexor]	6.2	-1.3	-0.6	2.2	13.5	1.3	-11.6	-0.6	-5.5	-3.6	3.2	-2.7	16.7
Cn1cc(C2=C(c3ccc(Cl)cc3Cl)C(=O)NC2=O)c2ccccc21	5.1	-1.5	6.9	0.4	2.1	-1.5	-1.5	-6.5	-1.5	-1.5	0.1	-1.5	3.8
CN1CCN(c2ccc(C(=O)Nc3n[nH]c4ccc(Cc5cc(F)cc(F)c5)cc34)c(NC3CCOCC3)c2)CC1 [Entrectinib]	8.1	2	3	10.8	12.9	7.7	2	-4.3	0.2	-2.3	-1.1	2.3	6
CCN(c1cc(-c2ccc(CN3CCOCC3)cc2)cc(C(=O)NCc2c(C)cc(C)[nH]c2=O)c1C)C1CCOCC1 [Tazemetostat]	-1.1	-0.8	-1.1	-1.1	-1.1	-1.1	1	-7	-0.9	-1.1	-1.1	-0.7	-1.1
CCn1c(-c2nonc2N)nc2cnc(Oc3cccc(NC(=O)c4ccc(OCCN5CCOCC5)cc4)c3)cc21	4.5	-2.7	1.8	-1.7	-2.6	1.1	6.5	-1.3	-2.9	-2.4	-2.1	2	-2.1
